What was measured:
[1] = tested on: HCT-116 human colon carcinoma cell line; test: Cell viability assay (SRB) in HCT-116; format: cell-based; settings: 72 hours after treatment, read-out: HCT116 IC50
Experimental: (§1) Human colon carcinoma cell line HCT-116 was a kind gift from Igor Ronninson from University of South Caroli, Columbia, USA. Human breast cancer cell line, JIMT-1 was kindly provided by Ali Osmay Güre from Bilkent University, Ankara, Turkey. Cells were cultured in Dulbecco's modified Eagle's medium (Lonza, NJ, USA), supplemented with 10% fetal bovine serum (FBS, Lonza), 1% non-essential amino acid (NEAA), 2 mM L-glutamine (Sigma Aldrich, MO, USA) and 50 U/ml penicillin/streptomycin (P/S). HCT-116 cells were cultured in McCoy's 5A (modified) (Gibco) medium supplemented with FBS, NEAA, L-glutamine and P/S. All cell lines were tested regularly using MycoAlert Mycoplasma Detection Kit (Lonza). The cumulative length of the cells between thawing and use in the experiments was less than 20 passages.
(§2) Newly synthesized molecules were dissolved in 100% DMSO to yield a stock concentration of 10 mM. For cell viability assay, JIMT-1 (3×10^3 cells/well) and HCT-116 (4×10^3), cells were seeded into 96-well plates, and 24 hours after cell seeding inhibitor treatments were performed at different concentrations. Cell viability was measured 72 hours after treatment with Sulforhodamine B (SRB, Sigma Aldrich) assay as recommended by the manufacturer.

[2] = tested on: JIMT-1 human breast cancer cell line; test: Cell viability assay (SRB) in JIMT-1; format: cell-based; settings: 72 hours after treatment, read-out: JIMT1 IC50
Experimental: as §1, §2

Row | SMILES | IC50 [1] [nM] | IC50 [2] [nM]
1 | COc1ccc(-c2cc(Nc3ccnc(N4CCOCC4)n3)[nH]n2)c(Cl)c1 [Compound 27, N-(3-(2-chloro-4-methoxyphenyl)-1H-pyrazol-5-yl)-2-morpholinopyrimidin-4-amine] | 321 | 367
2 | COc1ccc(-c2cc(Nc3ccnc(N4CC(C)(C)OC(C)(C)C4)n3)[nH]n2)cc1F [Compound 90, N-(3-(3-fluoro-4-methoxyphenyl)-1H-pyrazol-5-yl)-2-(2,2,6,6-tetramethylmorpholino)pyrimidin-4-amine] | 733 | 365
3 | COc1ccc(-c2cc(Nc3ccnc(N4CCOC(C)(C)C4)n3)[nH]n2)cc1F [Compound 92, 2-(2,2-dimethylmorpholino)-N-(3-(3-fluoro-4-methoxyphenyl)-1H-pyrazol-5-yl)pyrimidin-4-amine] | 488 | 245
4 | COc1ccc(-c2cc(Nc3ccnc(N4CCOC(C(F)(F)F)C4)n3)[nH]n2)cc1F (stereo not drawn) [Compound 96, N-(3-(3-fluoro-4-methoxyphenyl)-1H-pyrazol-5-yl)-2-(2-(trifluoromethyl)morpholino)pyrimidin-4-amine] | 89 | 47
5 | COc1ccc(-c2cc(Nc3ccnc(N4C[C@@H](C)O[C@H](C)C4)n3)[nH]n2)cc1F [Compound 106, 2-((2R,6R)-2,6-dimethylmorpholino)-N-(3-(3-fluoro-4-methoxyphenyl)-1H-pyrazol-5-yl)pyrimidin-4-amine] | 91 | 62
6 | COc1ccc(-c2cc(Nc3ccnc(N4CC(C)(C)OC(C)(C)C4)n3)[nH]n2)c(F)c1 [Compound 133, N-(3-(2-fluoro-4-methoxyphenyl)-1H-pyrazol-5-yl)-2-(2,2,6,6-tetramethylmorpholino)pyrimidin-4-amine] | 6560 | 606
7 | COc1ccc(-c2cc(Nc3ccnc(N4CCOC(C)(C)C4)n3)[nH]n2)c(F)c1 [Compound 135, 2-(2,2-dimethylmorpholino)-N-(3-(2-fluoro-4-methoxyphenyl)-1H-pyrazol-5-yl)pyrimidin-4-amine] | 880 | 230
8 | COc1ccc(-c2cc(Nc3ccnc(N4C(C)COCC4C)n3)[nH]n2)c(F)c1 (stereo not drawn) [Compound 136, 2-(3,5-dimethylmorpholino)-N-(3-(2-fluoro-4-methoxyphenyl)-1H-pyrazol-5-yl)pyrimidin-4-amine] | 1300 | 895
9 | COc1ccc(-c2cc(Nc3ccnc(N4CCOC(C)C4)n3)[nH]n2)c(F)c1 (stereo not drawn) [Compound 137, N-(3-(2-fluoro-4-methoxyphenyl)-1H-pyrazol-5-yl)-2-(2-methylmorpholino)pyrimidin-4-amine] | 59 | 24
10 | COc1ccc(-c2csc(Nc3ccnc(N4CCOCC4)n3)n2)cc1 [Compound 174, 4-(4-methoxyphenyl)-N-(2-morpholinopyrimidin-4-yl)thiazol-2-amine] |  | ≥ 10000
11 | COc1ccc(-c2coc(Nc3ccnc(N4CCOCC4)n3)n2)cc1 [Compound 177, 4-(4-methoxyphenyl)-N-(2-morpholinopyrimidin-4-yl)oxazol-2-amine] |  | ≥ 10000
12 | C[C@@H]1CN(c2nccc(Nc3cc(-c4ccc(Cl)cc4)n[nH]3)n2)C[C@H](C)O1 [Compound 197, N-(3-(4-chlorophenyl)-1H-pyrazol-5-yl)-2-((2R,6S)-2,6-dimethylmorpholino)pyrimidin-4-amine] | 255 | 
13 | Cc1ccc(-c2cc(Nc3ccnc(N4C[C@@H](C)O[C@@H](C)C4)n3)[nH]n2)cc1 [Compound 198, 2-((2R,6S)-2,6-dimethylmorpholino)-N-(3-(p-tolyl)-1H-pyrazol-5-yl)pyrimidin-4-amine] | 80 | 
14 | CCc1ccc(-c2cc(Nc3ccnc(N4C[C@@H](C)O[C@@H](C)C4)n3)[nH]n2)cc1 [Compound 199, 2-((2R,6S)-2,6-dimethylmorpholino)-N-(3-(4-ethylphenyl)-1H-pyrazol-5-yl)pyrimidin-4-amine] | 90 | 
15 | C[C@@H]1CN(c2nccc(Nc3cc(-c4ccc(S(C)(=O)=O)cc4)n[nH]3)n2)C[C@H](C)O1 [Compound 206, 2-((2R,6S)-2,6-dimethylmorpholino)-N-(3-(4-(methylsulfonyl)phenyl)-1H-pyrazol-5-yl)pyrimidin-4-amine] | 4640 | 
16 | C[C@@H]1CN(c2nccc(Nc3cc(-c4ccc(N5CCCC5)cc4)n[nH]3)n2)C[C@H](C)O1 [Compound 209, 2-((2R,6S)-2,6-dimethylmorpholino)-N-(3-(4-(pyrrolidin-1-yl)phenyl)-1H-pyrazol-5-yl)pyrimidin-4-amine] | 108 | 
17 | COc1ccc(-c2cc(Nc3nc(N4C[C@@H](C)O[C@@H](C)C4)ncc3C)[nH]n2)c(F)c1 [Compound 283, 2-((2R,6S)-2,6-dimethylmorpholino)-N-(3-(2-fluoro-4-methoxyphenyl)-1H-pyrazol-5-yl)-5-methylpyrimidin-4-amine] |  | 212
18 | COc1ccc(-c2cc(Nc3cccc(N4CCOCC4)n3)[nH]n2)c(F)c1 [Compound 298, N-(3-(2-fluoro-4-methoxyphenyl)-1H-pyrazol-5-yl)-6-morpholinopyridin-2-amine] |  | 34
19 | C[C@@H]1CN(c2cc(Nc3cc(-c4ccc(OC(F)F)cc4)n[nH]3)ccn2)C[C@H](C)O1 [Compound 308, N-(3-(4-(difluoromethoxy)phenyl)-1H-pyrazol-5-yl)-2-((2R,6S)-2,6-dimethylmorpholino)pyridin-4-amine] |  | 53

Results, then the compound that gave them:

Row | IC50 [1] [nM] | IC50 [2] [nM] | SMILES
20 | 47 | 5 | COc1ccc(-c2cc(Nc3ccnc(N4CCOCC4)n3)[nH]n2)cc1 [Compound 5, N-(3-(4-methoxyphenyl)-1H-pyrazol-5-yl)-2-morpholinopyrimidin-4-amine]
21 | 36 | 23 | COc1ccc(-c2cc(Nc3ccnc(N4CCOCC4)n3)[nH]n2)c(F)c1 [Compound 56, N-(3-(2-fluoro-4-methoxyphenyl)-1H-pyrazol-5-yl)-2-morpholinopyrimidin-4-amine]
22 | 3 | 17 | COc1ccc(-c2cc(Nc3ccnc(N4C[C@@H](C)O[C@@H](C)C4)n3)[nH]n2)cc1 [Compound 59b, 2-((2R,6S)-2,6-dimethylmorpholino)-N-(3-(4-methoxyphenyl)-1H-pyrazol-5-yl)pyrimidin-4-amine]
23 | 5 | 25 | COc1ccc(-c2cc(Nc3ccnc(N4CCC(C)CC4)n3)[nH]n2)cc1 [Compound 69, N-(3-(4-methoxyphenyl)-1H-pyrazol-5-yl)-2-(4-methylpiperidin-1-yl)pyrimidin-4-amine]
24 | 28 | 26 | COc1ccc(-c2cc(Nc3ccnc(N4CCC(C(F)(F)F)CC4)n3)[nH]n2)cc1 [Compound 70, N-(3-(4-methoxyphenyl)-1H-pyrazol-5-yl)-2-(4-(trifluoromethyl)piperidin-1-yl)pyrimidin-4-amine]
25 | 5 | 7 | COc1ccc(-c2cc(Nc3ccnc(N4C[C@@H](C)O[C@@H](C)C4)n3)[nH]n2)cc1F [Compound 86b, 2-((2R,6S)-2,6-dimethylmorpholino)-N-(3-(3-fluoro-4-methoxyphenyl)-1H-pyrazol-5-yl)pyrimidin-4-amine]
26 | 25 | 25 | COc1ccc(-c2cc(Nc3ccnc(N4CCC(C)CC4)n3)[nH]n2)cc1F [Compound 87, N-(3-(3-fluoro-4-methoxyphenyl)-1H-pyrazol-5-yl)-2-(4-methylpiperidin-1-yl)pyrimidin-4-amine]
27 | 9 | 31 | COc1ccc(-c2cc(Nc3ccnc(N4CCC(C(F)(F)F)CC4)n3)[nH]n2)cc1F [Compound 89, N-(3-(3-fluoro-4-methoxyphenyl)-1H-pyrazol-5-yl)-2-(4-(trifluoromethyl)piperidin-1-yl)pyrimidin-4-amine]
28 | 46 | 29 | COc1ccc(-c2cc(Nc3ccnc(N4CCOC(C)C4)n3)[nH]n2)cc1F (stereo not drawn) [Compound 94, N-(3-(3-fluoro-4-methoxyphenyl)-1H-pyrazol-5-yl)-2-(2-methylmorpholino)pyrimidin-4-amine]
29 | 7 | 18 | COc1ccc(-c2cc(Nc3ccnc(N4CCC(C)CC4)n3)[nH]n2)c(F)c1 [Compound 130, N-(3-(2-fluoro-4-methoxyphenyl)-1H-pyrazol-5-yl)-2-(4-methylpiperidin-1-yl)pyrimidin-4-amine]
30 | 47 | 53 | COc1ccc(-c2cc(Nc3ccnc(N4CCC(F)CC4)n3)[nH]n2)c(F)c1 [Compound 131, N-(3-(2-fluoro-4-methoxyphenyl)-1H-pyrazol-5-yl)-2-(4-fluoropiperidin-1-yl)pyrimidin-4-amine]
31 | 38 | 18 | COc1ccc(-c2cc(Nc3ccnc(N4CCC(C(F)(F)F)CC4)n3)[nH]n2)c(F)c1 [Compound 132, N-(3-(2-fluoro-4-methoxyphenyl)-1H-pyrazol-5-yl)-2-(4-(trifluoromethyl)piperidin-1-yl)pyrimidin-4-amine]
32 | 52 | 15 | COc1ccc(-c2cc(Nc3ccnc(N4CCOCC4C)n3)[nH]n2)c(F)c1 (stereo not drawn) [Compound 138, N-(3-(2-fluoro-4-methoxyphenyl)-1H-pyrazol-5-yl)-2-(3-methylmorpholino)pyrimidin-4-amine]

Reference: patent publication US20240374590A1, “COMPOSITIONS AND METHODS FOR TREATING CANCER” (A2A PHARMACEUTICALS, INC., priority 2021, published 2024)
